Measurements reported in patent US9150505B2, “Prophylactic or therapeutic agent for diabetes or obesity” (AJINOMOTO CO., INC., priority 2010, dated 2015).

How the values were obtained:
[1] = tested on: NCI-H716 cells; assay: Promotion of GLP-1 secretion in NCI-H716 cells; assay type: cell-based, human; details: 5 mM, 30 minutes at 37° C., buffer assumed to be 1.0
Method: Human appendix-derived cell line NCI-H716 (ATCC No CCL-251) was cultured in a 10% FBS-containing DMEM/HamF-12 medium at 37° C. in the presence of 5% CO2. NCI-H716 cells were seeded in a poly-D-lysine-coated 96-well plate at 100,000 cells/well and cultured for two days. Prior to sample addition, wells were washed with Hepes buffer (20 mM Hepes, 146 mM NaCl, 5 mM KCl, 1.5 mM CaCl2, 1 mM MgSO4, 5.5 mM D-glucose, 0.2% BSA, pH 7.4). Fifty μl of a sample solution dissolved in the same buffer was added and incubated at 37° C. for 30 minutes. The above-described compounds in Example 6 (Compound 1) (10 mM), Example 48 (Compound 2) (5 mM) and Example 14 (Compound 3) (2 mM) were used as the samples. In addition, a Hepes buffer was used as a control. After collecting the supernatant, the cells were precipitated by centrifugation (5,000×g, 1 min.) to collect the supernatant thereof. GLP-1 level in the supernatant was determined as described below according to a quantitative method for GLP-1 that uses GLP-1 receptor gene expression cells.
According to a routine method (Lopez de Maturana R, Willshaw A, Kuntzsch A, Rudolph R, Donnelly D. J Biol Chem. 2003 Mar. 21; 278 (12):10195-200), human GLP-1 receptor gene (Nucleotide sequence 1) was integrated into pcDNA3.1 to prepare human GLP-1 receptor gene expression plasmid hGLP-1R/pcDNA3.1. Moreover, chimeric gene (Nucleotide sequence 2) of human Gα15 gene and human gustducin gene was integrated into pcDNA3.1 to prepare G protein expression plasmid Gα15-gust/pcDNA3.1. […] After 24 hours of cultivation in a CO2 incubator, changes in the fluorescence intensity were determined starting immediately after sample addition according to the Ca^2+ fluorescence indicator FLIPR Calcium 4 Assay Kit protocol (Molecular Devices) using FlexStation (Molecular Devices). Concentration dependency of human GLP-1 (7-36 Amide; Peptide Institute) with respect to the changes in the fluorescence intensity was determined and used as a standard curve for quantitating the sample. […]

[2] = tested on: NCI-H716 cells; assay: Promotion of CCK secretion in NCI-H716 cells; assay type: cell-based, human
Method: Human appendix-derived cell line NCI-H716 (ATCC No CCL-251) was cultured in a 10% FBS-containing DMEM/HamF-12 medium at 37° C. in the presence of 5% CO2. NCI-H716 cells were seeded in a poly-D-lysine-coated 24-well plate at 600,000 cells/well and cultured for two days. Prior to sample addition, wells were washed with Hepes buffer (20 mM Hepes, 146 mM NaCl, 5 mM KCl, 1.5 mM CaCl2, 1 mM MgSO4, 5.5 mM D-glucose, 0.02% BSA, pH 7.4). 300 μl of a sample solution dissolved in the same buffer was added and incubated at 37° C. for 30 minutes. Compound 1 in Example 6 (2 mM) and Compound 2 in Example 48 (1 mM) were used as the samples. In addition, a Hepes buffer was used as a control. After collecting the supernatant, the cells were precipitated by centrifugation (5,000×g, 1 min.) to collect the supernatant thereof, which was lyophilized in Speed Vac Concentrator (SAVANT) and dissolved by addition of 60 μl of water. CCK level in the solution was determined using Enzyme immuno assay kit (EK-069-04; PHENOIX PHARMACEUTICALS).

[3] = tested on: normal mice (C57BL/6J); assay: Effects on gastric emptying using mouse (phenol red method); assay type: in vivo; details: 2.4 nmol/kg subcutaneously, 24 h fasted mice, phenol red 15 min after drug, stomach resected 20 min later; vehicle 82.4 ± 7.0%
Method: A dosing vehicle (distilled water) or 3 mg/kg of the compound in Example 6 (Compound 1) was orally administered in a forced manner using a mouse sonde to normal mice (C57BL/6J, 7-week-old) after 24 hours of fasting. As positive controls, a group subcutaneously injected with Exendin-4 (Sigma) (2.4 nmol/kg) that was known to have an effect of suppressing gastric emptying was also prepared. 10 ml/kg of dosing vehicle was also orally administered to the mice of the Exendin-4 group. Fifteen minutes after drug administration, phenol red solution (0.5 mg/ml phenol red+1.5% methylcellulose+distilled water) was orally administered in a forced manner at a volume of 5 ml/kg. After another 20 minutes, the stomach was resected from each mouse and phenol red remaining in the stomach was extracted in 0.1N NaOH solution. Absorbance of the extracted solution was determined at 560 nm to quantitate the amount of remaining phenol red (S). While the amount of phenol red (C) extracted from the stomach resected immediately after the administration of phenol red was assumed to be 100%, the amount of remaining phenol red […] with respect to C was calculated, as a gastric emptying volume (%), based on the following expression. Gastric emptying volume(%)=(1−(S/C))×100

Compound	Relative secretion volumes (GLP-1) [1]	Relative secretion volumes (CCK) ([2]; 1 mM, 30 minutes at 37° C., buffer assumed to be 1.0)	effect of promoting CCK secretion ([2]; result in words)	Gastric emptying volume [3]
Cc1c(Cl)cc(NC(=S)NC[C@H](N)C(=O)O)cc1S(=O)(=O)O [Example 48, (2S)-2-amino-3-{[(3-chloro-4-methyl-5-sulfophenyl)carbamothioyl]amino}propanoic acid]	15.42	2.22	confirmed to have an effect of promoting CCK secretion	
Exendin-4: Positive control (Sigma), known to have an effect of suppressing gastric emptying				51.2 ± 4.2% (*)
